pEC50, pIC50: −log10 of the molar value. ≈ marks a conversion by molar mass, not a printed value.
Experiments:
[1] = target: Cytochrome P450 3A4 (Homo sapiens, UniProt P08684); test: Inhibition of human recombinant CPY3A4
[2] = Drug uptake in tumor of SCID mouse xenografted with PTEN-deficient human PC3 cells at 300 mg/kg, po BID measured after 0.5 hrs; type: ADME, organism-based, Neoplasm, PC-3; design: dose 300 mg/kg, route oral; details: read-out: Drug uptake
[3] = Plasma concentration in SCID mouse xenografted with PTEN-deficient human PC3 cells at 300 mg/kg, po BID measured after 0.5 hrs; type: ADME, organism-based, PC-3; design: dose 300 mg/kg, route oral
[4] = test system: Mus musculus; test: Inhibition of Akt phosphorylation at T308 residue in tumor of po dosed SCID mouse bearing human PTEN-deficient PC3 cells administered BID; type: functional, organism-based; details: PC-3
[5] = AUC (0 to 24 hrs) in CB17/ICR-Prkdc SCID mouse at 6 mg/kg, iv; type: ADME, organism-based; design: time < 24 hr, dose 6 mg/kg, route intravenous; details: plasma
[6] = Terminal half life in CB17/ICR-Prkdc SCID mouse at 6 mg/kg, iv; type: ADME, organism-based; design: dose 6 mg/kg, route intravenous; details: in vivo, read-out: beta t1/2 (converted)
[7] = Plasma concentration in SCID mouse xenografted with PTEN-deficient human PC3 cells at 300 mg/kg, po BID measured after 1 hr; type: ADME, organism-based, PC-3; design: dose 300 mg/kg, route oral
[8] = Thermodynamic solubility of the compound in phosphate buffer at pH 7.4 after 16 hrs by HPLC analysis; type: physicochemical; details: read-out: Therm_solubility
[9] = Plasma concentration in SCID mouse xenografted with PTEN-deficient human PC3 cells at 300 mg/kg, po BID measured after 24 hrs; type: ADME, organism-based, PC-3; design: dose 300 mg/kg, route oral
[10] = target: Phosphatidylinositol 4,5-bisphosphate 3-kinase catalytic subunit beta isoform (Homo sapiens, UniProt P42338); test: Inhibition of human PI3Kbeta-mediated Akt phosphorylation at Ser473 residue expressed in mouse MEF-3T3 cells after 0.5 to 2 hrs by Western blot analysis; type: cell-based
Sequence of Phosphatidylinositol 4,5-bisphosphate 3-kinase catalytic subunit beta isoform (P42338 whole entry, canonical isoform): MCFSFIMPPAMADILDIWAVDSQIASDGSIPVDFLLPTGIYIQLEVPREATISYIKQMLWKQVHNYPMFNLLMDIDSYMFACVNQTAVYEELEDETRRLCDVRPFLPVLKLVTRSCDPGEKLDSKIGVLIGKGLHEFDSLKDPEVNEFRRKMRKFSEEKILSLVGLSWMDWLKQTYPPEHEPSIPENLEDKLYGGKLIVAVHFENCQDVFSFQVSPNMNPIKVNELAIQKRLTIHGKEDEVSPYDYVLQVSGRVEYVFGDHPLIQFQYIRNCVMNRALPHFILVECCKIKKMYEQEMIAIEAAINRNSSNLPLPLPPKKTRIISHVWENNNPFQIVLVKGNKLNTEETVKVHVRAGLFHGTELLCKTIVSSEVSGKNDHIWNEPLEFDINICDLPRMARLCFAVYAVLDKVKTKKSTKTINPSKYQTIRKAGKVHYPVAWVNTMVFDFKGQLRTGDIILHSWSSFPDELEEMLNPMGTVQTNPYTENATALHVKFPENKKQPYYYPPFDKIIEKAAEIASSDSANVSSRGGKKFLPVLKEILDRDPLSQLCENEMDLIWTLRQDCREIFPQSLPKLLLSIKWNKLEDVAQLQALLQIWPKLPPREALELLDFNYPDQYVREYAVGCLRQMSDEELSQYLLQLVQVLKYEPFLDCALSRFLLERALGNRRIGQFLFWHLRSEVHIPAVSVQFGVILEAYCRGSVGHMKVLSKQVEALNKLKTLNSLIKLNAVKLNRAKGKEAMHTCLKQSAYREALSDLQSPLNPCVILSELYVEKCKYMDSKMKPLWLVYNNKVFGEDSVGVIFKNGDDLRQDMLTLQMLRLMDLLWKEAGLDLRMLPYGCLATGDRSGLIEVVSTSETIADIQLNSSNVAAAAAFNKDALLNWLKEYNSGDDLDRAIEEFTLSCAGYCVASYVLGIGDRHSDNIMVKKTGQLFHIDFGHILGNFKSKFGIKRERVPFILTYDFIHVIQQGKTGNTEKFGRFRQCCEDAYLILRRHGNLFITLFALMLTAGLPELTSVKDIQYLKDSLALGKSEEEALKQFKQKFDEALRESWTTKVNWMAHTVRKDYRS

[11] = test system: Mus musculus; test: Tlast in CB17/ICR-Prkdc SCID mouse at 6 mg/kg, iv; type: ADME, organism-based; design: dose 6 mg/kg, route intravenous; details: in vivo
[12] = test system: Mus musculus; test: Inhibition of Akt phosphorylation at T308 residue in SCID mouse bearing human PTEN-deficient PC3 cells at 300 mg/kg, po BID measured after 6 hrs; type: functional; details: PC-3, 6 h
[13] = Apparent permeability of the compound across human Caco2 cells; type: ADME, cell-based; details: Caco-2
[14] = AUC (0 to 24 hrs) in CB17/ICR-Prkdc SCID mouse at 10 mg/kg, po; type: ADME, organism-based; design: time < 24 hr, dose 10 mg/kg, route oral; details: plasma
[15] = test system: Plasma; test: Plasma concentration in SCID mouse xenografted with PTEN-deficient human PC3 cells at 300 mg/kg, po BID measured after day 4; type: ADME, organism-based, PC-3; design: dose 300 mg/kg, route oral; details: in vivo
[16] = test system: PC-3; test: Antitumor activity against PTEN-deficient human PC3 cells xenografted in SCID mouse assessed as tumor growth inhibition at 300 mg/kg, po BID for 9 days measured on day 32 relative to control; type: functional
[17] = AUC (0 to infinity) in CB17/ICR-Prkdc SCID mouse at 10 mg/kg, po; type: ADME, organism-based; design: time infinity, dose 10 mg/kg, route oral; details: plasma
[18] = target: T1, Phosphatidylinositol 4,5-bisphosphate 3-kinase catalytic subunit delta isoform (Homo sapiens, UniProt O00329); test: Inhibition of human PI3Kdelta-mediated Akt phosphorylation at Ser473 residue expressed in mouse MEF-3T3 cells after 0.5 to 2 hrs by Western blot analysis; type: cell-based
T1 sequence (O00329 whole entry): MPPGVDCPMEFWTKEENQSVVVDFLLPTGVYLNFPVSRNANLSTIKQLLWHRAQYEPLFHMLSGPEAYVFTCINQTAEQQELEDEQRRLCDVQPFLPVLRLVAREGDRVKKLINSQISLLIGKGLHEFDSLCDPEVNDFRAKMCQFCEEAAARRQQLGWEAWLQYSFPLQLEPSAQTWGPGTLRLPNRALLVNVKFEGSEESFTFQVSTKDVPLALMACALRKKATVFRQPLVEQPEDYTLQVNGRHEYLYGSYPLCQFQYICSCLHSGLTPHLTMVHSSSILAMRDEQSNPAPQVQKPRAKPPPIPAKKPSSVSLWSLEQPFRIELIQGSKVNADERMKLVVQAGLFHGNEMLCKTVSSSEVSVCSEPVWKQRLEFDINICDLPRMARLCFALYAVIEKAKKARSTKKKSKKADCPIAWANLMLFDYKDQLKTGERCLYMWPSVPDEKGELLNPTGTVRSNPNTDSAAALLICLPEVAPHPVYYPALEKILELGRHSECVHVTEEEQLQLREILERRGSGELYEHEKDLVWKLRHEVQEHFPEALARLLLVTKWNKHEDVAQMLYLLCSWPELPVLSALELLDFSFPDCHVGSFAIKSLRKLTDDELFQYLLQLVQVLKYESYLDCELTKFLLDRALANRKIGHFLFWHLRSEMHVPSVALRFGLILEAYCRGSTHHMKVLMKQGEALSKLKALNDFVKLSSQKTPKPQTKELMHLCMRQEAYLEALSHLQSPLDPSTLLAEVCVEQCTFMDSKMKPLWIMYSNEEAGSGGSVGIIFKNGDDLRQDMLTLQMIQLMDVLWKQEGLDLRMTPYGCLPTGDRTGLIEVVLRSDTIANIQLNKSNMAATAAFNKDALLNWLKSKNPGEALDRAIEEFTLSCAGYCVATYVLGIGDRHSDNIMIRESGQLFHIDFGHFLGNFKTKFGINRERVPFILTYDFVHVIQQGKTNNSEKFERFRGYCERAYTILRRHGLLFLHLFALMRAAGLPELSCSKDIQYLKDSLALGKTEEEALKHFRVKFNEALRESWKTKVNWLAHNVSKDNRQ

Sequence of Cytochrome P450 3A4 (P08684 whole entry): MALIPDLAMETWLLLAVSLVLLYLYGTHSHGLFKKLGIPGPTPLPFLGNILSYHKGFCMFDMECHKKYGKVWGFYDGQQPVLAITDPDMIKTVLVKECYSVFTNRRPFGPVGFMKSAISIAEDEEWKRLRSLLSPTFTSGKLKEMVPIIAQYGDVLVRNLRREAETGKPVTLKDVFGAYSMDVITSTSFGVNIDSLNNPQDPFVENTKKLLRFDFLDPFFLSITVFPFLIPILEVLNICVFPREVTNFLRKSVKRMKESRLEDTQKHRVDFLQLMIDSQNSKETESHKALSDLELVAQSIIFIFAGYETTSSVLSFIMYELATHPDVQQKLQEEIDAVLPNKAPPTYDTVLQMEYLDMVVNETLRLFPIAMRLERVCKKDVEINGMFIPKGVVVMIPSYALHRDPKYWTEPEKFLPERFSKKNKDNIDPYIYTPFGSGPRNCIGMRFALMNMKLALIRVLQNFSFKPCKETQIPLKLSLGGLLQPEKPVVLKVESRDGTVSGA

pIC50 [1]: < 4.40
concentration at 0.5 h [2]: 13 µM
concentration at 0.5 h [3]: 28 µM
pEC50 [4]: 5.68
AUC(0-t) at 24 h [5]: 1950 ng·h/mL
half-life [6]: 4.4 h
concentration at 1 h [7]: 22 µM
solubility thermodynamic at 16 h [8]: 65 µM (≈ 21.1 µg/mL)
concentration at 24 h [9]: 1.7 µM
pIC50 [10]: 7.07
Tlast [11]: 24 h
Papp [13]: 3 ×10⁻⁶ cm/s
AUC(0-t) at 24 h [14]: 846 ng·h/mL
Drug uptake [15]: Active
AUC(0-inf) [17]: 850 ng·h/mL
pIC50 [18]: 5.58
SMILES: Cn1c(Cc2nc(N3CCOCC3)cc(=O)[nH]2)nc2ccccc21
inhibition in vivo at 300 mg/kg [12]: > 50%
T/C [16]: 45%

— ChEMBL document CHEMBL2062364, “Discovery and optimization of new benzimidazole- and benzoxazole-pyrimidone selective PI3Kβ inhibitors for the treatment of phosphatase and TENsin homologue (PTEN)-deficient cancers” (J Med Chem, 2012)
